# Tested on: SETDB1, CSV, ATF7IP, IMPα1 in H1299 cells
# Experiment: IFA microscopy of SETDB1, CSV, ATF7IP, IMPα1 in H1299
# Format: cell-based, human
# Set-up: dose or concentration left out as unconfirmed
# Protocol: FIG. 18. […] Protein targets were localized by ASI digital pathology. […] Protein targets were localized by ASI digital pathology.
# IFA microscopy and cell culture methods were performed as described in detail, above.
substance,measurement,value
Mithramycin A [MTH],expression of mesenchymal metastatic marker CSV,induced an increase
same,nuclear expression of SETDB1,no effect
